As a reminder, the half-life is the time in which the quantity being followed falls by half. A lower half-life goes with fast loss.

Series [1] in a line: Metabolic stability in rat liver microsomes (RLM). It counts as in vitro ADME. The following applies: both sexes, rat, pooled rat liver microsomes, pH 7.4, NADPH. In general terms: Liver microsomes are a subcellular fraction often used to study metabolism.
Series [2] concerns the target T1, 5-HT2A receptor (Homo sapiens (Human), UniProt P28223). It is filed as cell-based. The conditions noted are these: beta-arrestin recruitment. As for the experimental part:
The degree of arrestin bias varied substantially across the other compounds tested as well.
Arrestin Functional Assay at 5-HT2A. Recruitment of beta-arrestin was determined using a PathHunter assay at Eurofins DiscoverX (Fremont, CA) according to their standard protocols. PathHunter GPCR beta-arrestin assays take advantage of DiscoverX's proprietary Enzyme Fragment Complementation technology. The GPCR is fused in frame with a small enzyme donor fragment ProLink™ (PK) and co-expressed in cells stably expressing a fusion protein of beta-arrestin and the larger, N-terminal deletion mutant of beta-galactosidase. Activation of the GPCR (5-HT2A receptor in this case) stimulates binding of beta-arrestin to the PK-tagged GPCR and forces complementation of the two enzyme fragments, resulting in the formation of an active beta-galactosidase enzyme. This interaction leads to an increase in enzyme activity that can be measured using chemiluminescent PathHunter Detection Reagents. Briefly, PathHunter cells expressing 5-HT2A receptors were seeded in a volume of 20 μL into 384-well plates and incubated at 37° C. for the appropriate time prior to testing. […] Plates were then imaged on a microplate reader and the agonist activity was calculated using the following formula: % Activity=100%×(mean RLU of test sample−mean RLU of vehicle control)/(mean MAX control ligand−mean RLU of vehicle control), where RLU=relative light units.
A general note: Arrestin recruitment assays detect the binding of arrestin to an activated receptor.

In a further series the target is D1 receptor (Homo sapiens (Human), UniProt P21728). In words: FLIPR Ca^2+ flux agonist assay at D1. It is filed as cell-based. How it is done: (§1) Functional Assays at Adrenergic and Dopamine Receptors. Agonist activity at Alpha1A, Alpha2A, D1, and D2 receptors was determined using a FLIPR Ca^2+ flux assay at WuXi AppTec (Hong Kong) Limited according to their standard protocols. Briefly, stably transfected cells expressing the receptor of interest were grown and plated in a 384 well plate and incubated at 37° C. and 5% CO2 overnight. A solution of 250 mM probenecid in 1 mL FLIPR assay buffer was prepared fresh. This was combined with a fluorescent dye (Fluo-4 Direct™) to make a final assay concentration of 2.5 mM. […] The fluorescent dye was then added to the assay plate along with assay buffer to a final volume of 40 μL. The cell plate was incubated for 50 min at 37° C. and 5% CO2 and placed into the FLIPR Tetra along with the compound plate. 10 μL of references and compounds were then transferred from the compound plate into the cell plate and the fluorescent signal was read.
D1 receptor, sequence (P21728 whole entry, looked up): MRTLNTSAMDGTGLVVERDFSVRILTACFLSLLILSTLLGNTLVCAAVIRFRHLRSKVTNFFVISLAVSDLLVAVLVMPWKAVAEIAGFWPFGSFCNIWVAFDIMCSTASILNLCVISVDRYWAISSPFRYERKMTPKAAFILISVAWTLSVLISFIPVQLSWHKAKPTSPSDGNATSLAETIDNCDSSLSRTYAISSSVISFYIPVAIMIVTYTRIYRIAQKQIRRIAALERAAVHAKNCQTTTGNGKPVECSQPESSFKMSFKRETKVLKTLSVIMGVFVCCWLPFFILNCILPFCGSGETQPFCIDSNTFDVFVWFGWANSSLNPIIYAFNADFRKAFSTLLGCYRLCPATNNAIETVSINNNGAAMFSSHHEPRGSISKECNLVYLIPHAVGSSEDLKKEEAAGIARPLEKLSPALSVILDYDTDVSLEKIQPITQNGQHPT

In another series the target is 5-HT2B receptor (Homo sapiens (Human), UniProt P41595). In words: FLIPR Ca^2+ flux agonist assay at 5-HT2B. The following applies: HEK293. It counts as cell-based. The procedure, abridged: (§2)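 Agonist-induced calcium flux was measured on FLIPR Tetra in stable HEK293 cells for 5-HT2A and 5-HT2B, and in stable CHO cells for 5-HT1A. Cells were loaded with Fluo-4 Direct dye and 2.5 mM probenecid for 50 min at 37 °C before compound addition and fluorescence reading.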
5-HT2B receptor, sequence (P41595 whole entry, looked up): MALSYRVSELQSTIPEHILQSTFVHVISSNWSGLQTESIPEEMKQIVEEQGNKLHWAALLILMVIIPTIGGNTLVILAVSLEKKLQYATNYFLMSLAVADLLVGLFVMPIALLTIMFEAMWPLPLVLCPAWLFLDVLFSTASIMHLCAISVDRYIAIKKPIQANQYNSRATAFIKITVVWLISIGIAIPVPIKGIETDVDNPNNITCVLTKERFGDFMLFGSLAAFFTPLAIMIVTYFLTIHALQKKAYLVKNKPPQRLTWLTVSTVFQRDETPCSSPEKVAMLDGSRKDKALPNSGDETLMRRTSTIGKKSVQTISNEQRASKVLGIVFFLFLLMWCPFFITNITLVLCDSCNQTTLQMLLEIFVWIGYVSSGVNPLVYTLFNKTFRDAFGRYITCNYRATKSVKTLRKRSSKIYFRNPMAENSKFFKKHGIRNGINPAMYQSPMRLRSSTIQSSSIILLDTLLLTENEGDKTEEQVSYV

Series [3] has as its target T1, 5-HT2A receptor. It counts as cell-based. The following applies: Ca^2+ flux, HEK293. Summed up:
as §2

The target in a further series is D2 receptor (Homo sapiens (Human), UniProt P14416). Description: FLIPR Ca^2+ flux agonist assay at D2. It is filed as cell-based. How it is done: as §1
D2 receptor, sequence (P14416 whole entry, looked up): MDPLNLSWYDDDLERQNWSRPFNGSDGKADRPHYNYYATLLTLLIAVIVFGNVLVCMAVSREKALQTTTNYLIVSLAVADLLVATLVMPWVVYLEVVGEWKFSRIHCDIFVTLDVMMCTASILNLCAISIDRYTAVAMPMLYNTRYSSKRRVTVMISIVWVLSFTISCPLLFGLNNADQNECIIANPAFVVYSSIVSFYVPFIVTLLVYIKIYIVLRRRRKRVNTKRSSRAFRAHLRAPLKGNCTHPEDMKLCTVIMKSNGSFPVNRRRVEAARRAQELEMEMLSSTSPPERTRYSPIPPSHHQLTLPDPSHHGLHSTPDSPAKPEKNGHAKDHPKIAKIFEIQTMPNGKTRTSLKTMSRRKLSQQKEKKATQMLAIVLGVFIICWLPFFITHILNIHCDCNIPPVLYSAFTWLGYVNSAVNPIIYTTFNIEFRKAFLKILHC
A short description of series [4]: Metabolic stability in mouse liver microsomes (MLM). It counts as in vitro ADME. The following applies: mouse, pooled mouse liver microsomes, pH 7.4, MLM (CD-1), NADPH. An excerpt: MLM Stability Pooled MLM from CD-1 mice (BIOIVT M00501) were used.
The nature of series [5]: Metabolic stability in human liver microsomes (HLM). It counts as in vitro ADME. The following applies: both sexes, human, pooled human liver microsomes, pH 7.4, NADPH. An excerpt:
HLM Stability. Pooled HLM from adult male and female donors (Corning 452117) were used.

In the next series the target is 5-HT1B receptor (Homo sapiens (Human), UniProt P28222). Description: cAMP accumulation agonist assay at 5-HT1B. It is filed as cell-based. As for the experimental part: Functional Assay at 5-HT1B. Agonist activity at 5-HT1B was determined using a cAMP accumulation protocol at WuXi AppTec (Hong Kong) Limited according to their standard protocols. Briefly, stably transfected cells were plated in an OptiPlate-384 well plate, incubated at RT for 60 mins, and cAMP standard solution (800 nM, 10 μL) was added to the blank well. Then, 10 μL detection reagent was added to each well, the plate incubated for 60 mins at RT, and the plate read using EnVision.
5-HT1B receptor, sequence (P28222 whole entry, looked up): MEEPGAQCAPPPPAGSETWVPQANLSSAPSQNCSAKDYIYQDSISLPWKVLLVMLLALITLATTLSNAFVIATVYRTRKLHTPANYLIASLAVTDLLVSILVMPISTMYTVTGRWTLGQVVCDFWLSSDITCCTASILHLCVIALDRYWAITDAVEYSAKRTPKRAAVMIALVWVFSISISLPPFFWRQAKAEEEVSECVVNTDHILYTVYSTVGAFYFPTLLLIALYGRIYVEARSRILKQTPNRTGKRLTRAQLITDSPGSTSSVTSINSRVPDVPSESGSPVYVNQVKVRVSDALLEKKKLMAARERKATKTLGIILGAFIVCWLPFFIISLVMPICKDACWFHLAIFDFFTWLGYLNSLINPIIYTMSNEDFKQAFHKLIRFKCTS

The target in a further series is Alpha1A receptor (Homo sapiens (Human), UniProt P35348). In words: FLIPR Ca^2+ flux agonist assay at Alpha1A. It is filed as cell-based. How it is done:
Disclosed compounds were tested for agonist activity at several adrenergic (Alpha1A and Alpha2A) and dopamine (D1 and D2) receptor subtypes using Ca^2+ flux functional assays, with the results summarized in Table 6. Selectivity for the 5-HT2A receptor over these other targets varied depending on the specific target and compound.
Functional Assays at Adrenergic and Dopamine Receptors. Agonist activity at Alpha1A, Alpha2A, D1, and D2 receptors was determined using a FLIPR Ca^2+ flux assay at WuXi AppTec (Hong Kong) Limited according to their standard protocols. Briefly, stably transfected cells expressing the receptor of interest were grown and plated in a 384 well plate and incubated at 37° C. and 5% CO2 overnight. A solution of 250 mM probenecid in 1 mL FLIPR assay buffer was prepared fresh. This was combined with a fluorescent dye (Fluo-4 Direct™) to make a final assay concentration of 2.5 mM. Compounds were diluted 1:3.16 for 10 points and 750 nL was added to a 384 well compound plate using ECHO along with 30 μL assay buffer. The fluorescent dye was then added to the assay plate along with assay buffer to a final volume of 40 μL. The cell plate was incubated for 50 min at 37° C. and 5% CO2 and placed into the FLIPR Tetra along with the compound plate. 10 μL of references and compounds were then transferred from the compound plate into the cell plate and the fluorescent signal was read.

In a further series the target is 5-HT1A receptor (Homo sapiens (Human), UniProt P08908). In words: FLIPR Ca^2+ flux agonist assay at 5-HT1A. It counts as cell-based. The following applies: CHO cells.

Alpha1A receptor, sequence (P35348 whole entry, looked up): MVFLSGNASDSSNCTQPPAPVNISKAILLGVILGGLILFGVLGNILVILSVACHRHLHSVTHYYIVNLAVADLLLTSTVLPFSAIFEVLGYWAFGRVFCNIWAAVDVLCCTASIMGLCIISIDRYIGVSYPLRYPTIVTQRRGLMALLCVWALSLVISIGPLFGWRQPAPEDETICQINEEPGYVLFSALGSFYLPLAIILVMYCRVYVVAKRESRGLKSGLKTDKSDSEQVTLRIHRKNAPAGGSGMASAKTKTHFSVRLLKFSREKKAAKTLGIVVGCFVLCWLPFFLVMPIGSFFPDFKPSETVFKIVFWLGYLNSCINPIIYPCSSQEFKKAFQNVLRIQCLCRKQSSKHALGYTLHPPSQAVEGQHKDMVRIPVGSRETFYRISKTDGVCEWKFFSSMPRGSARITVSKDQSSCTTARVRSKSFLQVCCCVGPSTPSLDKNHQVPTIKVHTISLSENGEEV

`CCN(CC)C(=O)[C@@H]1C=C2c3cccc4[nH]cc(c34)C[C@H]2N(C)C1` [LSD, lysergic acid diethylamide, reference compound]: the half-life at 1 μM was 1 h in series [1], 0.522 h in series [4] and 1.19 h in series [5]. The “5-HT2A Arrestin % Act @ Max Dose” value at 5-HT2A receptor [2] is listed as 52.646%. Besides, the “agonist type in the 5-HT2A arrestin recruitment assay, in words” value on 5-HT2A receptor [2] is given as “partial agonists”. Moreover, the “D1 % Act @ Max Dose” value at D1 receptor is 94.9%. For the same compound, the “5-HT2B % Act @ Max Dose” value on 5-HT2B receptor is 19.26%. Also, at 5-HT2A receptor [3], the “5-HT2A % Act @ Max Dose” value is 107.7%. Moreover, the “D2 % Act @ Max Dose” value at D2 receptor is on record as 78.33%. In addition, the “5-HT1B % Act @ Max Dose” value at 5-HT1B receptor came to 98.03%. The “Alpha 1A % Act @ Max Dose” value at Alpha1A receptor is recorded as 60.3%. In addition, on 5-HT1A receptor, the “5-HT1A % Act @ Max Dose” value is listed as 91.39%.

The record behind these values is US20240368151A1, “NOVEL ERGOLINES AND METHODS OF TREATING MOOD DISORDERS” (priority 2021, published 2024).
